The text below walks through data of US8211924B2, “1-(azolin-2-yl)amino-1,2-diphenylethane compounds for combating animal pests” (BASF SE, priority 2007, dated 2012).

Where two headings read alike, the source gives them in different places.

Common to all, as to experiment: whole plant or invertebrate
Assay type in all cases: in vivo

The subject of experiment [1] is Cotton aphid (Aphis gossypi). Particulars: 120 h, cotton cotyledons dipped, determined after 5 days, read-out: mortality in comparison with untreated controls. On the procedure:
Cotton plants in the cotyledon stage (variety ‘Delta Pine’) are infested with approximately 100 laboratory-reared aphids by placing infested leaf sections on top of the test plants. The leaf sections are removed after 24 hours. The cotyledons of the intact plants are dipped into gradient solutions of the test compound. Aphid mortality on the treated plants, relative to mortality on check plants, is determined after 5 days.

Experiment [2] concerns Green Peach Aphid (Myzus persicae). The note with it: 120 h, pepper leaves dipped, determined after 5 days, read-out: mortality in comparison with untreated controls. On the procedure: Pepper plants in the 2nd leaf-pair stage (variety ‘California Wonder’) are infested with approximately 40 laboratory-reared aphids by placing infested leaf sections on top of the test plants. The leaf sections are removed after 24 hours. The leaves of the intact plants are dipped into gradient solutions of the test compound. Aphid mortality on the treated plants, relative to mortality on check plants, is determined after 5 days.

Experiment [3] concerns Silverleaf Whitefly. The note with it: Bemisia argentifolii; for mortality at 10 ppm: concentration 10 ppm; for mortality at 100 ppm: concentration 100 ppm. On the procedure: Selected cotton plants were grown to the cotyledon state (one plant per pot). The cotyledons were dipped into the test solution to provide complete coverage of the foliage and placed in a well-vented area to dry. […] The tip, containing the collected insects, was then gently inserted into the soil containing the treated plant, allowing insects to crawl out of the tip to reach the foliage for feeding. The cups were covered with a re-usable screened lid (150 micron mesh polyester screen PeCap from Tetko Inc). Test plants were maintained in the holding room at about 25° C. and 20-40% relative humid-ity for 3 days avoiding direct exposure to the fluorescent light (24 hour photoperiod) to prevent trapping of heat inside the cup. Mortality was assessed 3 days after treatment of the plants.
by evaluation of the test shown in paragraph III.).

Where [4] appears, read: 72 h, 300 ppm, cotton cotyledons dipped, assessed 3 days after treatment, read-out: mortality in comparison with untreated controls.
Where [5] appears, read: in Gossypium hirsutum, comparative example 1, test of paragraph III, read-out: mortality in comparison with untreated controls [%].
Setting [6] is: in Gossypium hirsutum, concentration 300 ppm, comparative example 1, test of paragraph III, read-out: mortality in comparison with untreated controls [%].

Regarding `C#CCN1CCSC1=NC(Cc1cc(C)cc(C)c1)c1cccc(Cl)c1Cl` (stereo not drawn) [Example 1, 1-(3-prop-2-ynyl-thiazolidin-2-ylidene)amino-1-(2,3-dichlorophenyl)-2-(3,5-dimethylphenyl)-ethane], the mortality at 300 ppm in experiment [1] is above 70%; in experiment [2], above 70%; in experiment [3] (setting [4]) it was above 70%; in experiment [3] (setting [6]), 100%. The mortality at 10 ppm in experiment [3] (setting [5]) worked out at 100%. Further, the mortality at 100 ppm in experiment [3] (setting [5]) is 100%.

Turning to `Cc1cc(C)cc(CC(N=C2SCCN2CCCOC2CCCCO2)c2cccc(Cl)c2Cl)c1` (stereo not drawn) [Example 2, 1-{3-[3-(tetrahydropyran-2-yloxy)propyl]thiazolidin-2-ylidene}amino-1-(2,3-dichlorophenyl)-2-(3,5-dimethylphenyl)-ethane], the mortality at 300 ppm in experiment [1], in experiment [2] and in experiment [3] (setting [4]) was above 70% each time.

On to `Cc1cc(C)cc(CC(N=C2SCCN2C2=NCCS2)c2cccc3c2OC(F)(F)O3)c1` (stereo not drawn) [Example 3, 1-(4,5,4′,5′-tetrahydro-[2,3]-bithiazolyl-2′-ylidene)amino-1-(2,2-difluoro-benzo[1,3]dioxol-4-yl)-2-(3,5-dimethyl-phenyl)-ethane], for which the mortality at 300 ppm in experiment [1], in experiment [2] and in experiment [3] (setting [4]) was above 70% throughout.

As for `Cc1cc(C)cc(CC(N=C2SCCN2C(=S)Nc2cccc(C(F)(F)F)c2)c2cccc(Cl)c2Cl)c1` (stereo not drawn) [Example 4, 2-[1-(2,3-dichlorophenyl)-2-(3,5-dimethylphenyl)ethylimino]-thiazolidine-3-carbothioic acid (3-trifluoromethylphenyl)amide], the mortality at 300 ppm is above 70% in experiment [1], above 70% in experiment [2], above 70% in experiment [3] (setting [4]) and 100% in experiment [3] (setting [6]). Moreover, the mortality at 10 ppm in experiment [3] (setting [5]) was determined as 50%. Also, the mortality at 100 ppm in experiment [3] (setting [5]) was found to be 100%.

In the case of `Cc1cc(C)cc(CC(NC2=NCCS2)c2cccc(Cl)c2Cl)c1` (stereo not drawn) [compound C.3, reference compound], in experiment [3] (setting [5]), the mortality at 10 ppm stood at 0% and the mortality at 100 ppm came to 100%. Also, in experiment [3] (setting [6]), the mortality at 300 ppm stood at 100%.

Broadly, the mortality is the percentage killed.
